Reference: PMC11350758, “Development of Xanthoangelol-Derived Compounds with Membrane-Disrupting Effects against Gram-Positive Bacteria” (Antibiotics, 2024)
≈ marks a conversion by molar mass, not a printed value.

Assays:
Format in all cases: cell-based
[1] = tested on: Enterococcus faecalis ATCC51299, vancomycin-resistant strain; experiment: MIC, broth microdilution; conditions: Enterococcus faecalis ATCC51299, vancomycin-resistant; read-out: MIC E. f. 51299
Method in brief: (§1)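 Broth microdilution per CLSI: 2-fold serial compound dilutions in TSB broth, mixed with an equal volume of bacterial suspension at 10^6 CFU/mL. Incubated 37 °C for 24 h; experiments repeated three times.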

[2] = tested on: Enterococcus faecium ATCC51559, vancomycin-resistant strain; experiment: MIC, broth microdilution; conditions: Enterococcus faecium ATCC51559, vancomycin-resistant; read-out: MIC E. f. 51559
Method in brief: as §1

[3] = tested on: S. aureus ATCC43300; experiment: Bactericidal time-kill assay; conditions: 8× MIC, 16 μg/mL
Experimental: Natural AMPs have rapid bactericidal properties, and in order to examine whether active compound 9h have similar rapid bactericidal properties, the time-kill kinetics of 9h were carried out to test the bactericidal action against S. aureus ATCC4330 at four different concentrations.
S. aureus ATCC43300 was cultured at 37 °C for 6 h and diluted to 1×10^6 CFU/mL. […] At each time point, the bacterial suspension (20 μL) was diluted in PBS, and the number of bacterial colonies was measured. All biological experiments were repeated three times.

[4] = tested on: Enterococcus faecalis ATCC29212, vancomycin-susceptible strain; experiment: MIC, broth microdilution; conditions: Enterococcus faecalis ATCC29212; read-out: MIC E. f. 29212
Method in brief: (§2)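 Twofold serial dilutions of compound in TSB broth were mixed with an equal volume of bacterial suspension (10^6 CFU/mL) and incubated at 37 °C for 24 h, following CLSI micro broth dilution. Experiments were repeated three times.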

[5] = tested on: Staphylococcus aureus ATCC25923, erythromycin-susceptible strain; experiment: MIC, broth microdilution; conditions: Staphylococcus aureus ATCC25923; read-out: MIC S. a. 25923
Method in brief: as §2

[6] = tested on: Klebsiella pneumonia ATCC10031; experiment: MIC, broth microdilution; conditions: Klebsiella pneumoniae; Klebsiella pneumonia ATCC10031; read-out: MIC K. p. 10031
Method in brief: as §2

[7] = tested on: Staphylococcus epidermidis ATCC12228, erythromycin-susceptible strain; experiment: MIC, broth microdilution; conditions: Staphylococcus epidermidis ATCC12228; read-out: MIC S. e. 12228
Method in brief: as §2

[8] = tested on: Staphylococcus aureus ATCC31007, penicillin-resistant strain; experiment: MIC, broth microdilution; conditions: Staphylococcus aureus ATCC31007; read-out: MIC S. a. 31007
Method in brief: as §2

[9] = tested on: Acinetobacter baumannii ATCC19606; experiment: MIC, broth microdilution; conditions: Acinetobacter baumannii ATCC19606; read-out: MIC A. b. 19606
Method in brief: as §2

[10] = tested on: Bacillus subtilis ATCC9372, penicillin-susceptible strain; experiment: MIC, broth microdilution; conditions: Bacillus subtilis ATCC9372; read-out: MIC B. s. 9372
Method in brief: as §2

[11] = tested on: Escherichia coli ATCC25922, penicillin-susceptible strain; experiment: MIC, broth microdilution; conditions: Escherichia coli ATCC25922; read-out: MIC E. c. 25922
Method in brief: as §2

[12] = tested on: Pseudomonas aeruginosa ATCC27853, penicillin-susceptible strain; experiment: MIC, broth microdilution; conditions: Pseudomonas aeruginosa ATCC27853; read-out: MIC P. a. 27853
Method in brief: as §2

Q: With `CC(=O)c1c(OCCCNCCCN2CCN(C)CC2)c2c(c3c1OC(C)(CCC=C(C)C)C=C3)OC(C)(CCC=C(C)C)C=C2` (centres unmarked) [Compound 9h, 1-(2,8-Dimethyl-2,8-bis(4-methylpent-3-en-1-yl)-5-(3-((3-(4-methylpiperazin-1-yl)propyl)amino)propoxy)-2H,8H-pyrano [2,3-f]chromen-6-yl)ethan-1-one] as the compound, how does the MIC [1] read?
A: 8 µg/mL (≈ 12.6 µM)

Q: What about the MIC [2] of the same compound?
A: 4 µg/mL (≈ 6.31 µM)

Q: What about the “time to complete bacterial killing” value [3] of the same compound?
A: 4 h

Q: What about the “killing of S. aureus” value ([3]; within 1 h) of the same compound?
A: ≥ 99.9%

Q: And the “colony-forming unit (CFU) reduction” value ([3]; within 1 h, compared with the control)?
A: 5.95 log

Q: What about the MIC [4] of the same compound?
A: 1 µg/mL (≈ 1.58 µM)

Q: And the MIC [5]?
A: 2 µg/mL (≈ 3.15 µM)

Q: And the MIC [6]?
A: 8 µg/mL (≈ 12.6 µM)

Q: What about the MIC [7] of the same compound?
A: 0.5 µg/mL (≈ 0.789 µM)

Q: And the MIC [8]?
A: 2 µg/mL (≈ 3.15 µM)

Q: And the MIC [9]?
A: 4 µg/mL (≈ 6.31 µM)

Q: What about the MIC [10] of the same compound?
A: 2 µg/mL (≈ 3.15 µM)

Q: And the MIC [11]?
A: 4 µg/mL (≈ 6.31 µM)

Q: And the MIC [12]?
A: 16 µg/mL (≈ 25.2 µM)
